# Publication PMC10669220, “In Vitro α-Glucosidase and α-Amylase Inhibition, Cytotoxicity and Free Radical Scavenging Profiling of the 6-Halogeno and Mixed 6,8-Dihalogenated 2-Aryl-4-methyl-1,2-dihydroquinazoline 3-Oxides” (Antioxidants, 2023)
# Key:
# [1] = NO free radical scavenging assay (sodium nitroprusside/Griess); settings: mean ± SD; sodium nitroprusside, Griess reagent, 550 nm
# How it was run: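 Test compound incubated with 10 mM sodium nitroprusside (stock) in phosphate buffer for 2.5 h at 25 °C, then Griess reagent added for 30 min. Triplicate absorbance means used for IC50 by nonlinear dose–response regression.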
# [2] = system: NO generated from nitric oxide synthase (NOS); experiment: Inhibitory activity against NO generated from NOS (EnzyChrom kit); format: biochemical; settings: mean ± SD, 1-50 µM
# Description: A nitric oxide synthase (NOS) assay was performed following the procedure recommended by the manufacturer as outlined in the screening kit (Catalogue No. EINO-100; EnzyChrom). Various concentrations (1, 5, 10, 25 and 50 µM) of the compounds 3a, 3c, 3f, 3i, 3l, 3n and 3p and the reference standard, ascorbic acid, were prepared. The enzyme solution (12.5 U/mL NOS, 10 µL), assay buffer (25 µL) and test samples (5 µL) were incubated at room temperature for 15 min. After pre-incubation, 10 µL of reaction mix was added and incubated at 37 °C for 60 min. A 200 µL quantity of NO detection reagent was added, the detection reaction was run at 37 °C for 60 min, and absorbance was determined at a wavelength of 540 nm using an Elisa plate reader (Varioskan Flash, ThermoFisher Scientific, Vantaa, Finland). The average of three readings was used to calculate the NOS percentage inhibition using the following formula: % Inhibition=1−ΔOD Test Compd/ΔOD No Inhibitor ×100%
# The IC50 values and standard deviation values were determined from nonlinear regression dose–response curve and compared with the results in GraphPad prism.
# [3] = MTT cytotoxicity assay, HEK293-T; settings: human, HEK293-T cells
# Description: (§1) Cells were cultured in sterile Dulbecco’s Minimal Essential Medium (DMEM, Gibco) supplemented with 10% fetal bovine serum (FBS) and 1% penicillin-streptomycin solution. […] Cell counting was carried out using a handheld automated cell counter (Scapter 3.0™, Merck, Burlington, MA, USA) and seeded (1 × 10^4 cells/well) into a 96-well plate. After 24 h, the cells were treated with different concentrations (1, 5, 10, 25 and 50 µM) of the test compounds and reference standards prepared in DMEM. The MTT solution (20 μL) prepared in PBS (5 mg/mL) was added to all the wells, and the plates were incubated for 4 h, followed by 1 h incubation with 100 µL of dimethyl sulfoxide (DMSO) to dissolve the formazan crystals. Untreated cells and 5% DMSO were included in the experiment as negative controls. All experiments were performed in triplicate. The plates were read at 570 nm at a reference wavelength of 630 nm using an ELISA plate reader (Varioskan Flash, ThermoFisher Scientific, Vantaa, Finland). The percentage of cell viability was calculated using the following formula, Cell viability %=At/Ab×100 where At represents the absorbance value of test compound and Ab the absorbance value of the blank. […] The data were expressed as means ± SD.
# [4] = system: human embryonic kidney (HEK293-T) cell line; experiment: MTT cytotoxicity assay, HEK293-T; settings: Homo sapiens, HEK-293T, read-out: IC50 Hek293-T
# Description: as §1
smiles,measurement,setting,value
CC1=[N+]([O-])C(c2ccccc2)Nc2c(I)cc(Br)cc21 (stereo not drawn) [Compound 3i],IC50,[1],61.26 ± 0.005 µM
same,IC50,[2],29.08 ± 0.004 µM
same,melting point,,162 to 164 °C
same,viability at 1 µM,[3],34.9%
same,viability at 5 µM,[3],33.9%
same,viability at 10 µM,[3],33.8%
same,viability at 25 µM,[3],29.8%
same,viability at 50 µM,[3],26.9%
same,IC50,[4],34.9 ± 0.13 µM
